Common to all, as to assay type: cell-based
Experiment [1] addresses T1, CDK10 (Homo sapiens, UniProt Q15131).
T1 construct: endogenous in cells; host or cells: MOLT4
Description: CDK10 degradation in MOLT4 cells (TMT proteomics, immunoblot). As to the method: Cells were collected and lysed in RIPA lysis buffer (Cat. #BP-115DG, Boston Bio Products, Ashland, MA, USA) supplemented with protease and phosphatase inhibitor cocktails (Cat. #PPC1010, Sigma-Aldrich, St. Louis, MO, USA). Protein samples were made and immunoblotting was performed as described previously (Khan et al., 2019; Lv et al., 2021). Antibodies purchased from Cell Signaling Technologies (CST) and the dilutions are as follows: Biotin (Cat. No. 5571S, 1:1000), PARP (Cat. No. 9542S, 1:1000), c-Myc (Cat. No. 5605S, 1:1000), MCL1 (Cat. No. 5453S, 1:1000), and ALK (Cat. No. 3791S, 1:1000). KEAP1 antibody was purchased from Proteintech (Cat. No. 10503-2-AP, 1:1000). CDK9 antibody was purchased from Santa Cruz (Cat. No. sc-13130, 1:500). V5-tag antibody was purchased from Bethyl (Cat. No. A190-120P, 1:1000). j-actin antibody was purchased from MP Biomedicals (Cat. No. 8691001, 1:20 000).
Sample Preparation and LC-MS/MS analysis. […]
Data processing and analysis. Proteins were identified and MS3 reporter ions quantified using MaxQuant (version 2.0.3.0; Max Planck Institute) against the Homo sapiens UniprotKB database (March 2021) with a parent ion tolerance of 3 ppm, a fragment ion tolerance of 0.5 Da, and a reporter ion tolerance of 0.003 Da. […]
A general note: Immunoblotting shows a protein as a band on a membrane.

Experiment [2] deals with T2, CDK9 (Homo sapiens, UniProt P50750). Description: TMT-based global proteomics in MOLT4 cells. More on the design: endogenous in cells; host or cells: MOLT4. From the text: Sample Preparation and LC-MS/MS analysis. Total protein from cell pellets was reduced, alkylated, and purified by chloroform/methanol extraction prior to digestion with sequencing grade modified porcine trypsin (Cat. No. V5111, Promega). Tryptic peptides were labeled using tandem mass tag isobaric labeling reagents (Cat. No. A34808, ThermoFisher) following the manufacturer's instructions and combined into one 11-plex sample group. The labeled peptide multiplex was separated into 46 fractions on a 100×1.0 mm Acquity BEH C18 column (Waters) using an UltiMate 3000 UHPLC system (Thermo) with a 50 min gradient from 99:1 to 60:40 bufferA:B (Buffer A: 0.1% formic acid, 0.5% acetonitrile; Buffer B: 0.1% formic acid, 99.9% acetonitrile. Both buffers adjusted to pH 10 with ammonium hydroxide for offline separation) ratio under basic pH conditions, and then consolidated into 18 super-fractions. […]
Data processing and analysis. Proteins were identified and MS3 reporter ions quantified using MaxQuant (version 2.0.3.0; Max Planck Institute) against the Homo sapiens UniprotKB database (March 2021) with a parent ion tolerance of 3 ppm, a fragment ion tolerance of 0.5 Da, and a reporter ion tolerance of 0.003 Da. Scaffold Q+S (Proteome Software) was used to verify MS/MS based peptide and protein identifications (protein identifications were accepted if they could be established with less than 1.0% false discovery and contained at least 2 identified peptides; protein probabilities were assigned by the Protein Prophet algorithm (Nesvizhskii et al., 2003) and to perform reporter ion-based statistical analysis. Protein TMT MS3 reporter ion intensity values were assessed for quality using ProteiNorm for a systematic evaluation of normalization methods (Graw et al., 2020). Cyclic loess normalization (Ritchie et al., 2015) was utilized since it had the highest intragroup correlation and the lowest variance amongst the samples. […]

Experiment [3] concerns the target T2, CDK9. Description: CDK9 degradation in MOLT4 cells (immunoblot). More on the design: endogenous in cells; host or cells: MOLT4, 293T, K562, NCI-H1299, LNCaP. Here is the method:
All the cell lines were maintained in a humidified incubator at 37° C. and 5% CO2.
Data analysis was performed using GraphPad Prism software (version 9) unless indicated otherwise. All graphs presented represent the mean±standard deviation of the mean (SD) unless otherwise stated.

“Also recorded” adds a separate entry of the source. Some results are limits rather than exact numbers.

In general, DC50 refers to the concentration at which degradation of the target reaches its halfway point. Read a high DC50 as degradation only at high concentration.

T1 sequence (Q15131 whole entry): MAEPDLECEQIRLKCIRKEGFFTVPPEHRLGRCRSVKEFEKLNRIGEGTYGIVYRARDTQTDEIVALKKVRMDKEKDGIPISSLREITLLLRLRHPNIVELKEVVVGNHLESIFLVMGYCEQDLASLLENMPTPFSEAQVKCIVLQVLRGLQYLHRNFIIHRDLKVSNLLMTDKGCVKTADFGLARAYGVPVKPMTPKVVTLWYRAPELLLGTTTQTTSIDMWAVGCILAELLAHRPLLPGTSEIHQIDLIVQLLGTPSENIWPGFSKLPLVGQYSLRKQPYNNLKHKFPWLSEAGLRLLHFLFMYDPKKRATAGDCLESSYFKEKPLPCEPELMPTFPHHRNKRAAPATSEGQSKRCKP
T2 sequence (P50750 whole entry): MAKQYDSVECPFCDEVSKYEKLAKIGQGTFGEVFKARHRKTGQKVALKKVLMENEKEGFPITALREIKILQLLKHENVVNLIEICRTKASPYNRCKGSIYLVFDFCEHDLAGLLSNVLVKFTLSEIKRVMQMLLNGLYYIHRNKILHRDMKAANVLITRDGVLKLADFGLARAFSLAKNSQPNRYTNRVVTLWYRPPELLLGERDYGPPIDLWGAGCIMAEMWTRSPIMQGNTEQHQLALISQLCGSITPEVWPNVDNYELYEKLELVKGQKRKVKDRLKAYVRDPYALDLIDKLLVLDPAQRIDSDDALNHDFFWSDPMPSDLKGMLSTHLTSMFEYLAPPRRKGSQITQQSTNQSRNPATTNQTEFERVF

As for `COc1cc(/C=C/C(=O)N2CCC=CC2=O)cc(OC)c1OCCN1CCN(C(=O)CN2CCC(C(=O)Nc3ncc(SCc4ncc(C(C)(C)C)o4)s3)CC2)CC1` [compound 955, (E)-N-(5-(((5-(tert-butyl)oxazol-2-yl)methyl)thio)thiazol-2-yl)-1-(2-(4-(2-(2,6-dimethoxy-4-(3-oxo-3-(6-oxo-3,6-dihydropyridin-1(2H)-yl)prop-1-en-1-yl)phenoxy)ethyl)piperazin-1-yl)-2-oxoethyl)piperidine-4-carboxamide], the “dependence of CDK10 degradation (MG132, MLN4924 pre-treatment)” value in experiment [1] is “UPS—and CRL-dependent manner; also recorded: proteasome- and CRL-dependent manner”. Also, the CDK10 degradation result in experiment [1] (0.1 μM 955, 1 μM SNS-032) was “significantly decreased CDK10; also recorded: potently degrade CDK10”. Besides, the “proteins degraded or downregulated after short treatment (global proteome)” value in experiment [2] (0.1 μM 955, 1 hour) was “only degraded CDK9 and CDK10 and downregulated one downstream protein FYTTD1”. Further, in experiment [2] (0.1 μM 955 for 1 h and 6 h, 1 μM SNS-032 for 6 h), the “CDK9 protein level (global proteome)” value was “reduced the protein level of CDK9; also recorded: significant reduction of CDK9”. Further, in experiment [3], the “955-induced CDK9 degradation after pre-treatment with PL or SNS-032” value is given as “fully blocked”, the “955-induced CDK9 degradation after pre-treatment with autophagy/lysosome inhibitor Baf-A1 or chloroquine” value is reported as “could not block CDK9 degradation; also recorded: does not block CDK9 degradation”, the “955-induced CDK9 degradation after pre-treatment with neddylation inhibitor MLN4924” value is “could be blocked; also recorded: blocks 955-induced CDK9 degradation” and the “955-induced CDK9 degradation after pre-treatment with pan-caspase inhibitor QVD” value was “could not block CDK9 degradation; also recorded: does not block CDK9 degradation”. Also, in experiment [3], the “955-induced CDK9 degradation after pre-treatment with proteasome inhibitor MG132 or bortezomib” value was “could be blocked; also recorded: can be blocked”; the “955-induced CDK9 degradation with E1 inhibitors PYR-41 and TAK-243” value is given as “E1-dependent”; the “955-induced CDK9 degradation with KEAP1 inhibitors CDDO-ME, CDDO-IM or DMF” value is recorded as “completely blocked”. The “duration of CDK9 degradation effect in the time course” value in experiment [3] (955 at 0.1 μM) is “at least 48 hours”. Moreover, in experiment [3] (955 at 0.1 μM, time course), the “time at which CDK9 was completely degraded” value amounted to 8 h and the “time to almost complete degradation of CDK9” value is on record as at most 8 h. Also, the “CDK9 degradation with short-term treatment” value in experiment [3] (6 h treatment) is listed as “potently degraded CDK9; also recorded: able to potently degrade CDK9”. The compound further returned a DC50 in experiment [3] (16 h treatment, from ImageJ-quantified Western blots) of 9 nM. In addition, the CDK9 degradation result in experiment [3] (immunoblot) is recorded as “only 955, degraded CDK9; also recorded: can induce CDK9 degradation”. In experiment [3] (washout), the “duration of CDK9 degradation after removal (washout) of 955” value was “up to 18 h”.

(Values after US20250057963A1, “DISCOVERY OF PIPERLONGUMINE AS A NOVEL E3 LIGASE LIGAND” (University of Florida Research Foundation, Incorporated, priority 2021, published 2025).)
